Experimental data: US9426989B2 (priority 2010, dated 2016)

Assays:
Assay type in all cases: cell-based
[1] = system: Enteroviruses (Coxsackie virus, Echovirus); test: Comparative data for inactivation with BPL: Enteroviruses; details: BPL 0.05%; 16 hours +2-8° C. (then 2 hours 37° C. for BPL hydrolysis)
[2] = system: BK Polyoma virus; test: Comparative data for inactivation with BPL: BK Polyoma virus; details: BPL 0.05%; 16 hours +2-8° C. (then 2 hours 37° C. for BPL hydrolysis)
[3] = system: Mammalian orthoreovirus, type 3 (strain Dearing, ATCC VR-824)

SMILES | LRV [1] | LRV [2] | Reduction (of reovirus titre) [3] | reovirus inactivation, in words [3]
O=C1CCO1 [BPL, β-propiolactone] | 4-5 | 2.1 | – | –
COO [Inactivator 072, Methylhydroperoxide] | – | – | 0.9 log 10 | performed poorly
